The results in this text go back to patent publication EP4631938A1, “NITROGEN-CONTAINING HETEROCYCLE WITH SEROTONIN RECEPTOR-BINDING ACTIVITY AND CARBOCYCLIC DERIVATIVE” (Shionogi & Co., Ltd, priority 2022, dated 2024).

Each structure is given as a SMILES string. Read-outs that look alike come from different tables or passages of the source.

Data set [1] deals with T1, human recombinant 5-HT2A receptor (Homo sapiens, UniProt P28223).
T1 construct: expressed in transfected cells; host or cells: Jump-In HEK cells (membrane preparation)
T1 sequence (P28223 whole entry): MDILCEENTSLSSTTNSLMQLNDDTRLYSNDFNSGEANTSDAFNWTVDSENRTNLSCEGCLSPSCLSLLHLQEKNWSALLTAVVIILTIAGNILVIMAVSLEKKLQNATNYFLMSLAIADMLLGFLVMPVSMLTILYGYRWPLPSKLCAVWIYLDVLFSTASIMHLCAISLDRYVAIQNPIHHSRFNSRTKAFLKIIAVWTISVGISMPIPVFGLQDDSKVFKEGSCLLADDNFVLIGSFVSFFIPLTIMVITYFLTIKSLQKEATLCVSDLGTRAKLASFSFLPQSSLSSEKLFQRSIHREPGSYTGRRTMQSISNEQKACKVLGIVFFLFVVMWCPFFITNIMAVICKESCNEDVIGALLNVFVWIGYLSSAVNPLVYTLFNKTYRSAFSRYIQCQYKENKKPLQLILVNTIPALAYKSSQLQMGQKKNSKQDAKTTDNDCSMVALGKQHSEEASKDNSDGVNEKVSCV
Nature of the data set: Test Example 1: 5-HT2A receptor binding inhibition test ([3H]-Ketanserin; non-specific ligand Serotonin HCl). As to the method: The Kd value is calculated when the lot of the cell membrane is changed. 1 mmol/L non-specific binding calculating compound dissolved in DMSO or DMSO is previously dispensed to the microplate by 0.5 µL, and the cell membrane is diluted with an Assay buffer. The radioactive ligand solution is diluted step by step, and counts are checked with a liquid scintillator. The Assay buffer containing diluted cell membranes is dispensed by 50 µL/well into the microplate. The radioactive ligand solution is then dispensed by 50 µL/well into the microplate and the plate is sealed. The microplate is allowed to stand for 1.5 hours at room temperature (25°C). During this time, 50 mmol/L Tris-HCl (pH 7.4) is dispensed by 50 µL/well on the GF/B UniFilter plate and allowed to stand at 4°C for 1 hour or longer. Thereafter, filtration is performed with a Cell Harvester (PerkinElmer). The radioactive ligand solution is dispensed by 10 µL/well into empty wells of the GF/B UniFilter plate. After drying the GF/B UniFilter plate at room temperature, MicroScinti20 is dispensed by 50 µL/well into the GF/B UniFilter plate, and the plate is sealed. GF/B UniFilter plate is allowed to stand at room temperature overnight. The radioactivity of [^3H]-Ketanserin bound to the 5-HT2A receptor is measured using Microbeta2 (PerkinElmer) at a measurement time of 1 min/well. The Saturation curve is drawn from the measured value, and the Kd value is calculated from the slope of the Scatchard Plot.
A compound solution dissolved in DMSO is dispensed to a microplate by 0.5 µL, and a cell membrane and a hot ligand are each diluted with an Assay buffer. The Assay buffer containing diluted cell membrane is then dispensed by 50 µL/well into the microplate. The radioactive ligand solution is then dispensed by 50 µL/well into the microplate and the plate is sealed. Thereafter, the microplate is allowed to stand at room temperature (25°C) for 1.5 hours. During this time, 50 mmol/L Tris-HCl (pH 7.4) is dispensed by 50 µL/well into the GF/B UniFilter plate and allowed to stand at 4°C for 1 hour or longer. Thereafter, filtration is performed with a Cell Harvester (PerkinElmer). After drying the GF/B UniFilter plate at room temperature, MicroScinti20 is dispensed by 50 µL/well into the GF/B UniFilter plate, and the plate is sealed. GF/B UniFilter plate is allowed to stand at room temperature overnight. The radioactivity of [^3H]-Ketanserin bound to the 5-HT2A receptor is measured using Microbeta2 (PerkinElmer) at a measurement time of 1 min/well. Non-specific binding is calculated from the radioactivity of [^3H]-Ketanserin in the presence of 500 µmol/L Serotonin HCl of unlabeled ligand, and total binding is calculated from the radioactivity of [^3H]-Ketanserin in the absence of the compound of the present invention (Vehicle). Finally, the Ki value is calculated from the dose-response curve.
(The binding activity of the compound according to the present invention is calculated from the following binding inhibition rate (%).) Inhibition rate (%) = [1−(c−a)/(b−a)] × 100 [formula] • a; average cpm of non-specific binding • b; average cpm of total binding • c; cpm in the presence of the test compound
The compounds of the present invention were tested essentially as described above.

Data set [2] concerns the target T2, CYP3A4 (Homo sapiens, UniProt P08684).
T2 construct: pooled human liver microsomes by 1-hydroxylation reaction of midazolam (MDZ) as a marker reaction; from tissue; host or cells: pooled human liver microsomes
The data set is described as follows: Test Example 8: CYP3A4 (MDZ) MBI test. The format is in vitro ADME. The settings on record: pooled human liver microsomes; substrate 10 µmol/L MDZ; pre-reaction 0 or 30 minutes; compound 0.83, 5, 10, 20 µmol/L. How it is done:
CYP3A4 (MDZ) MBI test is a test of investigating MBI potential on CYP3A4 by the enhancement of inhibitory degree of a metabolic reaction caused by the compound of the present invention. CYP3A4 inhibition is evaluated using pooled human liver microsomes by 1-hydroxylation reaction of midazolam (MDZ) as a marker reaction.
The reaction conditions are as follows: substrate, 10 µmol/L MDZ; pre-reaction time, 0 or 30 minutes; substrate reaction time, 2 minutes; reaction temperature, 37°C; pooled human liver microsomes, at pre-reaction 0.5 mg/mL, at reaction 0.05 mg/mL (at 10-fold dilution); concentrations of the compound of the present invention, at pre-reaction 0.83, 5, 10, 20 µmol/L (4 points).
Pooled human liver microsomes and a solution of the compound of the present invention in K-Pi buffer (pH 7.4) as a pre-reaction solution are added to a 96-well plate at the composition of the pre-reaction. A part of pre-reaction solution is transferred to another 96-well plate, and diluted 10-fold by K-Pi buffer containing a substrate. NADPH as a cofactor is added to initiate a reaction as a marker reaction (without preincubation). After a predetermined time of the reaction, methanol/acetonitrile=1/1 (V/V) solution is added to stop the reaction. NADPH is also added to the remaining pre-reaction solution to initiate the pre-reaction (with pre-reaction), and after the pre-reaction for a predetermined time, a part is transferred to and diluted 10-fold by K-Pi buffer containing a substrate to initiate the reaction as a marker reaction. After a predetermined reaction time, the reaction is stopped by adding a methanol/acetonitrile = 1/1 (V/V) solution. Each plate where the indicator reaction has been performed is centrifuged at 3000 rpm for 15 minutes. Then, midazolam 1-hydroxide in the centrifuged supernatant is quantified by LC/MS/MS.
The sample adding DMSO as a solvent to a reaction system instead of a solution dissolving the compound of the present invention is adopted as a control (100 %). Remaining activity (%) is calculated at each concentration of the compound of the present invention compared to a control, and IC value is calculated by reverse-presumption by a logistic model using a concentration and an inhibition rate. Shifted IC value is calculated as "IC of preincubation at 0 minutes/ IC of preincubation at 30 minutes". When a shifted IC is 1.5 or more, this is defined as positive. When a shifted IC is 1.0 or less, this is defined as negative.

T2 sequence (P08684 whole entry): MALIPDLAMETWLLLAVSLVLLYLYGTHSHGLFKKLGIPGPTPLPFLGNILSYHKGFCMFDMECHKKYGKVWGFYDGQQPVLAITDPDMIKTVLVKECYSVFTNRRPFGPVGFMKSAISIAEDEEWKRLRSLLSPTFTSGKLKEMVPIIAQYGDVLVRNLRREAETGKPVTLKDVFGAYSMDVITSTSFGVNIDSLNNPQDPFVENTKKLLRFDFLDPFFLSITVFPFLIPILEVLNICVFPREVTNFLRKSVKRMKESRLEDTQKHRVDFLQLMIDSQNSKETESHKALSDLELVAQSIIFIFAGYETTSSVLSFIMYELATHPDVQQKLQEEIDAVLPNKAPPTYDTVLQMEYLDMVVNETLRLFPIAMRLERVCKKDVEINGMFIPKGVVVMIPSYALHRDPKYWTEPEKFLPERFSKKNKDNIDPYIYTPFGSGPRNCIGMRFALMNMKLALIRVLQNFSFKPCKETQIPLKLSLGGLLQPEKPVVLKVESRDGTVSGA

As a reminder, the Ki is a dissociation constant, usually derived from enzyme kinetics or from competition with a known ligand. `Cn1ncc(Br)c1-c1cc(Nc2ncc(C(F)(F)F)cc2F)ccc1OCCO` [Compound I-006]: the Ki in data set [1] turned out to be 0.317 nM.

Take `Cc1cnn(C)c1-c1cc(Nc2ncc(C(F)(F)F)cc2F)ccc1OCCO` [Compound I-008]: the Ki in data set [1] ([3H]-Ketanserin, non-specific binding with 500 µmol/L Serotonin HCl, room temperature (25°C), 1.5 hours, read-out: h 5-HT2A Ki) turned out to be 0.344 nM. Regarding `Cn1ncc(F)c1-c1cc(Nc2ncc(C(F)(F)F)cc2F)cnc1OCCO` [Compound I-127], the “CYP3A4 (MDZ) MBI (shifted IC: IC of preincubation at 0 minutes/ IC of preincubation at 30 minutes)” value in data set [2] is reported as “Negative (When a shifted IC is 1.0 or less, this is defined as negative)”. As to `COCc1nc(C)c(-c2cc(Nc3ncc(OC(F)(F)F)cc3Cl)ncc2OCCO)c(C)n1` [Compound I-200], the “CYP3A4 (MDZ) MBI (shifted IC: IC of preincubation at 0 minutes/ IC of preincubation at 30 minutes)” value in data set [2] is recorded as “Negative (When a shifted IC is 1.0 or less, this is defined as negative)”.

With `COCc1nc(C)c(-c2nc(Nc3ccc(C(F)(F)F)c(C)n3)c(F)cc2OCCO)c(C)n1` [Compound I-247], the “CYP3A4 (MDZ) MBI (shifted IC: IC of preincubation at 0 minutes/ IC of preincubation at 30 minutes)” value in data set [2] is listed as “Negative (When a shifted IC is 1.0 or less, this is defined as negative)”.

Take `Cc1nc(COC2COC2)nc(C)c1-c1cc(Nc2ncc(C(F)(F)F)cc2Cl)ncc1OCCO` [Compound I-376]: in data set [2], the “CYP3A4 (MDZ) MBI (shifted IC: IC of preincubation at 0 minutes/ IC of preincubation at 30 minutes)” value is reported as “Negative (When a shifted IC is 1.0 or less, this is defined as negative)”.

On to `Cc1nc(CO[C@@H]2CCOC2)nc(C)c1-c1cc(Nc2ncc(C(F)(F)F)cc2Cl)ncc1OCCO` [Compound I-378], for which, in data set [2], the “CYP3A4 (MDZ) MBI (shifted IC: IC of preincubation at 0 minutes/ IC of preincubation at 30 minutes)” value was “Negative (When a shifted IC is 1.0 or less, this is defined as negative)”.
